Assays:
Type in all cases: in vivo
[1] = system: velvetleaf (Abutilon theophrasti); assay: Test C pre-/postemergence: velvetleaf
Procedure, shortened: (§1)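 Preemergence on seeds in loam/sand, postemergence on 2–18 cm (1–4-leaf) plants in peat-based medium; compounds in non-phytotoxic solvent with surfactant. After 13–15 days in greenhouse, visual rating versus controls, 0 (no effect) to 100 (complete control).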

[2] = system: galium (catchweed bedstraw, Galium aparine); assay: Test C pre-/postemergence: galium
Procedure, shortened: as §1

[3] = system: ryegrass, Italian (Italian ryegrass, Lolium multiflorum); assay: Test C pre-/postemergence: ryegrass, Italian
Procedure, shortened: as §1

kochia (Kochia scoparia) = assay: Test C pre-/postemergence: kochia; conditions: Postemergence
Procedure, shortened: as §1

[4] = system: morningglory (Ipomoea coccinea); assay: Test C pre-/postemergence: morningglory
Procedure, shortened: as §1

corn (Zea mays) = assay: Test C pre-/postemergence: corn
Procedure, shortened: as §1

[5] = system: foxtail, giant (giant foxtail, Setaria faberii); assay: Test C pre-/postemergence: foxtail, giant
Procedure, shortened: as §1

wild oat (Avena fatua) = assay: Test C pre-/postemergence: wild oat; conditions: Postemergence
Procedure, shortened: as §1

[6] = system: ducksalad (Heteranthera limosa); assay: Test B flooded paddy: ducksalad; conditions: Flood; 250 g ai/ha; applied to paddy water at 2-leaf stage; visually evaluated after 13 to 15 days
Procedure, shortened: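 Paddy-water application: seedlings at 2-leaf stage, flood depth 3 cm maintained for the test duration. Evaluation after 13–15 days in the greenhouse by eye relative to controls; 0–100 scale.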

[7] = system: johnsongrass (Sorghum halepense); assay: Test C pre-/postemergence: johnsongrass
Procedure, shortened: as §1

[8] = system: large crabgrass (Digitaria sanguinalis); assay: Test C pre-/postemergence: large crabgrass
Procedure, shortened: as §1

[9] = Postemergence, 31 g ai/ha, scale 0 to 100 (0 no effect, 100 complete control)
[10] = Postemergence, 62 g ai/ha, scale 0 to 100 (0 no effect, 100 complete control)
[11] = Postemergence, 125 g ai/ha, scale 0 to 100, 0 no effect, 100 complete control
[12] = Postemergence, 250 g ai/ha, scale 0 to 100 (0 no effect, 100 complete control)
[13] = Preemergence, 31 g ai/ha, scale 0 (no effect) to 100 (complete control)
[14] = Preemergence, 62 g ai/ha, scale of 0 to 100, 0 is no effect, 100 is complete control
[15] = Preemergence, 125 g ai/ha, scale 0 to 100, 0 no effect, 100 complete control
[16] = Preemergence, 250 g ai/ha, scale 0 to 100, 0 no effect, 100 complete control
[17] = 31 g ai/ha, scale 0 to 100 (0 no effect, 100 complete control)
[18] = 62 g ai/ha, scale 0 to 100 (0 no effect, 100 complete control)
[19] = 125 g ai/ha, scale 0 to 100, 0 no effect, 100 complete control
[20] = 250 g ai/ha, scale 0 to 100 (0 no effect, 100 complete control)
[21] = Postemergence, 250 g ai/ha, scale 0 to 100

## CCCc1nn(-c2ccc(F)cc2)nc1Oc1ccnc(C(F)(F)F)c1 [Compound 168]
[1]; [9]
  Plant response rating, Velvetleaf: 60
[1]; [10]
  Plant response rating, Velvetleaf: 75
[1]; [11]
  Plant response rating, Velvetleaf: 80
[1]; [12]
  Plant response rating, Velvetleaf: 90
[1]; [13]
  Plant response rating, Velvetleaf: 80
[1]; [14]
  Plant response rating, Velvetleaf: 100
[1]; [15]
  Plant response rating, Velvetleaf: 100
[1]; [16]
  Plant response rating, Velvetleaf: 100
[2]; [9]
  Plant response rating, Galium: 90
[2]; [10]
  Plant response rating, Galium: 90
[2]; [11]
  Plant response rating, Galium: 90
[2]; [12]
  Plant response rating, Galium: 95
[2]; [13]
  Plant response rating, Galium: 85
[2]; [14]
  Plant response rating, Galium: 100
[2]; [15]
  Plant response rating, Galium: 100
[2]; [16]
  Plant response rating, Galium: 100
[3]; [9]
  Plant response rating, Ryegrass, Italian: 10
[3]; [10]
  Plant response rating, Ryegrass, Italian: 35
[3]; [11]
  Plant response rating, Ryegrass, Italian: 60
[3]; [12]
  Plant response rating, Ryegrass, Italian: 80
[3]; [13]
  Plant response rating, Ryegrass, Italian: 70
[3]; [14]
  Plant response rating, Ryegrass, Italian: 98
[3]; [15]
  Plant response rating, Ryegrass, Italian: 100
[3]; [16]
  Plant response rating, Ryegrass, Italian: 100
Kochia (Kochia scoparia); [17]
  Plant response rating, Kochia: 90
Kochia (Kochia scoparia); [18]
  Plant response rating, Kochia: 90
Kochia (Kochia scoparia); [19]
  Plant response rating, Kochia: 90
Kochia (Kochia scoparia); [20]
  Plant response rating, Kochia: 90
[4]; [9]
  Plant response rating, Morningglory: 50
[4]; [10]
  Plant response rating, Morningglory: 80
[4]; [11]
  Plant response rating, Morningglory: 90
[4]; [12]
  Plant response rating, Morningglory: 90
[4]; [13]
  Plant response rating, Morningglory: 45
[4]; [14]
  Plant response rating, Morningglory: 55
[4]; [15]
  Plant response rating, Morningglory: 55
[4]; [16]
  Plant response rating, Morningglory: 80
Corn (Zea mays); [9]
  Plant response rating, Corn: 15
Corn (Zea mays); [10]
  Plant response rating, Corn: 15
Corn (Zea mays); [11]
  Plant response rating, Corn: 30
Corn (Zea mays); [21]
  Plant response rating, Corn: 45
Corn (Zea mays); [13]
  Plant response rating, Corn: 5
Corn (Zea mays); [14]
  Plant response rating, Corn: 15
Corn (Zea mays); [15]
  Plant response rating, Corn: 25
Corn (Zea mays); [16]
  Plant response rating, Corn: 55
[5]; [9]
  Plant response rating, Foxtail, Giant: 55
[5]; [10]
  Plant response rating, Foxtail, Giant: 65
[5]; [11]
  Plant response rating, Foxtail, Giant: 95
[5]; [21]
  Plant response rating, Foxtail, Giant: 95
[5]; [13]
  Plant response rating, Foxtail, Giant: 100
[5]; [14]
  Plant response rating, Foxtail, Giant: 100
[5]; [15]
  Plant response rating, Foxtail, Giant: 100
[5]; [16]
  Plant response rating, Foxtail, Giant: 100
Wild oat (Avena fatua); [17]
  Plant response rating, Oat, Wild: 30
Wild oat (Avena fatua); [18]
  Plant response rating, Oat, Wild: 45
Wild oat (Avena fatua); [19]
  Plant response rating, Oat, Wild: 50
Wild oat (Avena fatua); [20]
  Plant response rating, Oat, Wild: 60
[6]
  Plant response rating, Ducksalad (0 to 100 scale, 0 is no effect, 100 is complete control): 80
[7]; [9]
  Plant response rating, Johnsongrass: 30
[7]; [10]
  Plant response rating, Johnsongrass: 55
[7]; [11]
  Plant response rating, Johnsongrass: 70
[7]; [12]
  Plant response rating, Johnsongrass: 75
[7]; [13]
  Plant response rating, Johnsongrass: 75
[7]; [14]
  Plant response rating, Johnsongrass: 98
[7]; [15]
  Plant response rating, Johnsongrass: 100
[7]; [16]
  Plant response rating, Johnsongrass: 100
[8]; [9]
  Plant response rating, Crabgrass, Large: 30
[8]; [10]
  Plant response rating, Crabgrass, Large: 65
[8]; [11]
  Plant response rating, Crabgrass, Large: 95
[8]; [21]
  Plant response rating, Crabgrass, Large: 95
[8]; [13]
  Plant response rating, Crabgrass, Large: 100
[8]; [14]
  Plant response rating, Crabgrass, Large: 100
[8]; [15]
  Plant response rating, Crabgrass, Large: 100
[8]; [16]
  Plant response rating, Crabgrass, Large: 100

## CCc1nn(-c2ccc(C(F)(F)F)cc2)nc1Oc1ccnc(C(F)(F)F)c1 [Compound 169]
[1]; [9]
  Plant response rating, Velvetleaf: 50
[1]; [10]
  Plant response rating, Velvetleaf: 65
[1]; [11]
  Plant response rating, Velvetleaf: 75
[1]; [12]
  Plant response rating, Velvetleaf: 80
[1]; [13]
  Plant response rating, Velvetleaf: 50
[1]; [14]
  Plant response rating, Velvetleaf: 75
[1]; [15]
  Plant response rating, Velvetleaf: 75
[1]; [16]
  Plant response rating, Velvetleaf: 100
[2]; [9]
  Plant response rating, Galium: 80
[2]; [10]
  Plant response rating, Galium: 90
[2]; [11]
  Plant response rating, Galium: 90
[2]; [12]
  Plant response rating, Galium: 95
[2]; [13]
  Plant response rating, Galium: 100
[2]; [14]
  Plant response rating, Galium: 100
[2]; [15]
  Plant response rating, Galium: 100
[2]; [16]
  Plant response rating, Galium: 100
[3]; [9]
  Plant response rating, Ryegrass, Italian: 10
[3]; [10]
  Plant response rating, Ryegrass, Italian: 10
[3]; [11]
  Plant response rating, Ryegrass, Italian: 25
[3]; [12]
  Plant response rating, Ryegrass, Italian: 40
[3]; [13]
  Plant response rating, Ryegrass, Italian: 85
[3]; [14]
  Plant response rating, Ryegrass, Italian: 90
[3]; [15]
  Plant response rating, Ryegrass, Italian: 90
[3]; [16]
  Plant response rating, Ryegrass, Italian: 95
Kochia (Kochia scoparia); [17]
  Plant response rating, Kochia: 85
Kochia (Kochia scoparia); [18]
  Plant response rating, Kochia: 90
Kochia (Kochia scoparia); [19]
  Plant response rating, Kochia: 90
Kochia (Kochia scoparia); [20]
  Plant response rating, Kochia: 90
[4]; [9]
  Plant response rating, Morningglory: 98
[4]; [11]
  Plant response rating, Morningglory: 100
[4]; [12]
  Plant response rating, Morningglory: 100
[4]; [13]
  Plant response rating, Morningglory: 25
[4]; [14]
  Plant response rating, Morningglory: 55
[4]; [15]
  Plant response rating, Morningglory: 80
[4]; [16]
  Plant response rating, Morningglory: 85
Corn (Zea mays); [9]
  Plant response rating, Corn: 10
Corn (Zea mays); [10]
  Plant response rating, Corn: 15
Corn (Zea mays); [11]
  Plant response rating, Corn: 20
Corn (Zea mays); [21]
  Plant response rating, Corn: 30
Corn (Zea mays); [13]
  Plant response rating, Corn: 5
Corn (Zea mays); [14]
  Plant response rating, Corn: 5
Corn (Zea mays); [15]
  Plant response rating, Corn: 10
Corn (Zea mays); [16]
  Plant response rating, Corn: 20
[5]; [9]
  Plant response rating, Foxtail, Giant: 20
[5]; [10]
  Plant response rating, Foxtail, Giant: 65
[5]; [11]
  Plant response rating, Foxtail, Giant: 65
[5]; [21]
  Plant response rating, Foxtail, Giant: 90
[5]; [13]
  Plant response rating, Foxtail, Giant: 100
[5]; [14]
  Plant response rating, Foxtail, Giant: 100
[5]; [15]
  Plant response rating, Foxtail, Giant: 100
[5]; [16]
  Plant response rating, Foxtail, Giant: 100
Wild oat (Avena fatua); [17]
  Plant response rating, Oat, Wild: 5
Wild oat (Avena fatua); [18]
  Plant response rating, Oat, Wild: 25
Wild oat (Avena fatua); [19]
  Plant response rating, Oat, Wild: 30
Wild oat (Avena fatua); [20]
  Plant response rating, Oat, Wild: 50
[6]
  Plant response rating, Ducksalad (0 to 100 scale, 0 is no effect, 100 is complete control): 85
[7]; [9]
  Plant response rating, Johnsongrass: 15
[7]; [10]
  Plant response rating, Johnsongrass: 30
[7]; [11]
  Plant response rating, Johnsongrass: 35
[7]; [12]
  Plant response rating, Johnsongrass: 50
[7]; [13]
  Plant response rating, Johnsongrass: 20
[7]; [14]
  Plant response rating, Johnsongrass: 75
[7]; [15]
  Plant response rating, Johnsongrass: 95
[7]; [16]
  Plant response rating, Johnsongrass: 98
[8]; [9]
  Plant response rating, Crabgrass, Large: 35
[8]; [10]
  Plant response rating, Crabgrass, Large: 35
[8]; [11]
  Plant response rating, Crabgrass, Large: 40
[8]; [21]
  Plant response rating, Crabgrass, Large: 80
[8]; [13]
  Plant response rating, Crabgrass, Large: 100
[8]; [14]
  Plant response rating, Crabgrass, Large: 100
[8]; [15]
  Plant response rating, Crabgrass, Large: 100
[8]; [16]
  Plant response rating, Crabgrass, Large: 100

Source: US9302999B2, “Substituted triazoles as herbicides” (E. I. DU PONT DE NEMOURS AND COMPANY, priority 2012, dated 2016)
